Experiments:
[1] = tested on: Wistar rats; test: Blood growth hormone (GH) over time after intraduodenal administration; type: in vivo
Protocol: Statistical processing was performed by using ANOVA and Fisher's test.
Male, 8 to 9-week Wistar rats were used.

[2] = tested on: ddY mice; test: Small intestinal transit (Evans Blue mobility), gastrointestinal motility; type: in vivo; conditions: ddY mice fasted 18 hours, 30 minutes before test meal
Protocol: The symbol ** in the figure means a statistically significant difference (P<0.01) when comparing ornithine hydrochloride-administered group (3 g/kg) with control group, and the symbol in the figure means a statistically significant difference (P<0.001) when comparing ornithine hydrochloride-administered group (5 g/kg) with control group. Statistical processing was performed by using ANOVA and Fisher's test.
Gastrointestinal motility function was examined through small intestinal transit measurements according to the following testing method.
Male, 5 to 7-week ddY mice were used. […] After 30 minutes, the mice were orally administered with a dyed test meal (Evans Blue 5%, carboxymethyl cellulose 1%). The animals were killed by cervical dislocation after 5 minutes, and immediately cut open in the stomach to remove the whole small intestine. For evaluation of the gastrointestinal motility, the full length of the small intestine, and the length from the pylorus to the farthest point marked by the movement of Evans Blue were measured. Evans Blue mobility was calculated according to the following equation, and used as an index.
Mobility (%)=(the length from the pylorus to the farthest point marked by the movement of Evans Blue/the full length of small intestine)×100

| Compound | effect of the antagonist alone on blood GH ([1]; D-Lys3-GHRP-6 0.8 mg/kg i.v. alone) | GH concentration increasing effect of ornithine in presence of ghrelin antagonist ([1]; D-Lys3-GHRP-6 0.8 mg/kg i.v. plus ornithine hydrochloride 5 g/kg, vs ornithine hydrochloride alone, P<0.05 (FIG. 1)) | small intestinal transit compared to the control group ([2]; oral 3 g/kg (body weight), P<0.01 (FIG. 3)) | small intestinal transit compared to the control group ([2]; oral 5 g/kg (body weight), P<0.001 (FIG. 3)) |
| --- | --- | --- | --- | --- |
| D-Lys3-GHRP-6 | does not show the effect | inhibited | – | – |
| Cl.NCCC[C@H](N)C(=O)O [ornithine hydrochloride, L-ornithine hydrochloride] | – | – | significantly increased | significantly increased |

— patent US20170281582A1, “ENHANCER FOR EATING ACTIVITY AND/OR GASTROINTESTINAL ACTIVITY” (KYOWA HAKKO BIO CO., LTD., priority 2012, published 2017)
